In ChEMBL document CHEMBL1201862, “PubChem BioAssay data set” (2004):
Activity calls are given as the source filed them.

Assays:
[1] = biological target: Beta-galactosidase (Escherichia coli, UniProt Q8VNN2); test: PubChem AID 485352; type: functional
[2] = biological target: Type-1 angiotensin II receptor (Homo sapiens, UniProt P30556); test: antagonism of angiotensin II type 1 receptor – cell-based, uHTS hits, selectivity assay for APJ receptor antagonist project, dose response (AID 463214); type: functional;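 also: antagonist potency against angiotensin II stimulated AT1 response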
Type-1 angiotensin II receptor, sequence (P30556 whole entry): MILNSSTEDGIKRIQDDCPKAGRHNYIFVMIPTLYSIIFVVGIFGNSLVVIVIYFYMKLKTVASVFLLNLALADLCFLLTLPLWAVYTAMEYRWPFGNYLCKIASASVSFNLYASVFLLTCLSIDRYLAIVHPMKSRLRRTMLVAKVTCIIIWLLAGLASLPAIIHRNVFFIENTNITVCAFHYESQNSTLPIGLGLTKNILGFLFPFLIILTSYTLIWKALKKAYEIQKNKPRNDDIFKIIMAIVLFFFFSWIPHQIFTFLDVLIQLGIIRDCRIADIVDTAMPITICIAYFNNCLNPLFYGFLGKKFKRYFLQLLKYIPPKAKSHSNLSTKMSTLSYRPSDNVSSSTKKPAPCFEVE

[3] = biological target: Mitochondrial peptide methionine sulfoxide reductase (Bos taurus, UniProt P54149); test: Absorbance-based biochemical high throughput dose response assay for activators of Methionine sulfoxide reductase A (MsrA).; type: functional
Mitochondrial peptide methionine sulfoxide reductase, sequence (P54149 whole entry): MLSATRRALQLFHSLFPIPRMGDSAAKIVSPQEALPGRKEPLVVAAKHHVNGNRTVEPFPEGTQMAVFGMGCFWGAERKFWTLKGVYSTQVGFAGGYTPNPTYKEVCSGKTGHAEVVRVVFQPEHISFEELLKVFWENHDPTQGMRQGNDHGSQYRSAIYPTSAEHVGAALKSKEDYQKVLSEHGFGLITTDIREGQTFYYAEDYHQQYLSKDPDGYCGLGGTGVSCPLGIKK

[4] = test system: Streptococcus sp. 'group A'; test: Streptococcus pyogenes SK(-)GAS viability under kanamycin – luminescence, BacTiterGlo, confirmation, counter-screen for streptokinase expression inhibitor project, dose response (AID 1900); type: functional, organism-based
[5] = biological target: T1, Streptokinase A (Streptococcus pyogenes serotype M1, UniProt P10520); test: viability-normalized secreted streptokinase activity reduction – plasminogen activation absorbance, OD405, dose response (AID 1914); type: functional, Streptococcus pyogenes M1 GAS;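 also: secreted streptokinase activity via plasminogen activation per viability signal from cell pellet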
T1 sequence (P10520 whole entry): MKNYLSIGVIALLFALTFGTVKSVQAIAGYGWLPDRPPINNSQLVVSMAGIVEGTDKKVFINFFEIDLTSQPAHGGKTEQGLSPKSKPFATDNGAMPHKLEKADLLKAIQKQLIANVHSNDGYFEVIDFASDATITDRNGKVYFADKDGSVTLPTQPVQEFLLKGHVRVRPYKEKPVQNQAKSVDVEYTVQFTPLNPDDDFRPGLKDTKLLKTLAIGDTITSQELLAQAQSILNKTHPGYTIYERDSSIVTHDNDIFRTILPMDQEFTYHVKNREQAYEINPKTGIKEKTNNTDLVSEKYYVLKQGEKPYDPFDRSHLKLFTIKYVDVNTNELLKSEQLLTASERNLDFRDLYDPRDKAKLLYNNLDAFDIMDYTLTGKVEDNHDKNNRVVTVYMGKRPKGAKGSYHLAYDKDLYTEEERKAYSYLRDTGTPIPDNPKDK

[6] = Trypanosoma cruzi growth suppression in host cells – NIH3T3 host cells, beta-gal luminescence, confirmation (AID 2044); type: functional, cell-based;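 also: intracellular parasites grown in NIH/3T3 mouse fibroblasts as host cells; luminescent beta-galactosidase reporter signal from transgenic T. cruzi replicating inside host cells; inhibitors lower the luminescence signal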
[7] = NIH3T3 cell viability loss – ATP luminescence, mouse fibroblasts, counter-screen, dose response (AID 2010); type: functional, cell-based;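 also: cells exposed to compound for about 90 hours before reading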
[8] = test system: Streptococcus; test: GAS UMAA2166 growth inhibition – luminescence, BacTiterGlo, counter-screen for streptokinase expression inhibitor project, dose response (AID 1915); type: functional, organism-based;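 also: potency for reduction of bacterial viability or growth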
[9] = test system: HEK293; test: EBV LMP1 TES2 canonical NF-kB signalling blockers – cell-based, HEK293, luciferase, cherry-pick, dose response (AID 588343); type: functional; conditions: Homo sapiens
[10] = biological target: Latent membrane protein 1 (Human herpesvirus 4 (strain B95-8), UniProt P03230); test: LMP1 TES1 pathway selectivity over dsRED control – imaging, HEK293T, dual-color eGFP/dsRED, cherry-picks, selectivity assay for LMP1 NF-kB inhibitor project, dose response (AID 588398); type: functional, cell-based
Latent membrane protein 1, sequence (P03230 whole entry): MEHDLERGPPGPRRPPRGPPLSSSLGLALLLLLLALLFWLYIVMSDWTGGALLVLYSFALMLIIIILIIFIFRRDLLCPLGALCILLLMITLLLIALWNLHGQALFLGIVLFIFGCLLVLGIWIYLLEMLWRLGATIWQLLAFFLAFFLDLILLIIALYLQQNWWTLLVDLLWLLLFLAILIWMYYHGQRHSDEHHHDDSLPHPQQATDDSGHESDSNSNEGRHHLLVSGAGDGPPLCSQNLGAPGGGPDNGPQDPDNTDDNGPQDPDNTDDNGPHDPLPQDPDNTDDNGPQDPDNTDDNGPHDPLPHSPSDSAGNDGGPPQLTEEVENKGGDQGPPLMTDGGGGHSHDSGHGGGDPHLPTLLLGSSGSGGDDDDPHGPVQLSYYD

[11] = test system: INS1; test: INS-1E survival protection against cytokine death – cell-based, luminescence, retest, dose response (AID 449756); type: functional; conditions: Rattus norvegicus;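 also: cell death triggered by IL-1 beta plus TNF-alpha plus IFN-gamma mixture; protective hits raise ATP signal compared with cytokine alone wells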
[12] = biological target: Hexokinase-1 (Homo sapiens, UniProt P19367); test: hexokinase 1 activity inhibitors, potency – biochemical, set 2, resazurin fluorescence coupled readout, selectivity assay for HKDC1 inhibitor project, SAR follow-up (AID 588356); type: functional
Hexokinase-1, sequence (P19367 whole entry): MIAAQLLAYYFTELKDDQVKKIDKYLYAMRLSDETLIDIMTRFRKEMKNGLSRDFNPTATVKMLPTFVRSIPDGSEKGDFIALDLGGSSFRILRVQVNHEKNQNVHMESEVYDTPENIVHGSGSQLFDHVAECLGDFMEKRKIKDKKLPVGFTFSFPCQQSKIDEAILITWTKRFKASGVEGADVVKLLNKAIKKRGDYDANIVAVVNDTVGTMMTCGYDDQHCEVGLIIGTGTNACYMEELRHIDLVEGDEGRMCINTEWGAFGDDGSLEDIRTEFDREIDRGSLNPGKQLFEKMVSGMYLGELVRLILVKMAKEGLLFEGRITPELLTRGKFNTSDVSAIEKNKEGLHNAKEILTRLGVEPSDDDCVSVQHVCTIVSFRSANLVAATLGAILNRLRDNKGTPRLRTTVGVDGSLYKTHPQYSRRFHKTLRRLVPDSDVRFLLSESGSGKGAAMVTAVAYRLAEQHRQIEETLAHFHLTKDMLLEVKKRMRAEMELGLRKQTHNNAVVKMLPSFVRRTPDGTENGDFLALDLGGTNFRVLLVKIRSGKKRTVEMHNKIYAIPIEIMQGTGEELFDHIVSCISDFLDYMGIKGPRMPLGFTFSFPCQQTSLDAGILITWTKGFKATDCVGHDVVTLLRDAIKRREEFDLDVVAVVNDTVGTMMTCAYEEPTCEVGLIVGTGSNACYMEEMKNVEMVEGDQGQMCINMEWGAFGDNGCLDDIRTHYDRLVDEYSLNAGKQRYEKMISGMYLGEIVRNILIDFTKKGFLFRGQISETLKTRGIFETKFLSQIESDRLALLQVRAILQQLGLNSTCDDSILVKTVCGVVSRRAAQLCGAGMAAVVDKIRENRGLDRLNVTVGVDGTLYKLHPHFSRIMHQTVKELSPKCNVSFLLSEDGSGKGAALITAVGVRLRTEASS

[13] = biological target: T2, Hexokinase HKDC1 (Homo sapiens, UniProt Q2TB90); test: analog inhibition of human HKDC1 activity – biochemical, set 2, SAR follow-up (AID 588355); type: functional
T2 sequence (Q2TB90 whole entry): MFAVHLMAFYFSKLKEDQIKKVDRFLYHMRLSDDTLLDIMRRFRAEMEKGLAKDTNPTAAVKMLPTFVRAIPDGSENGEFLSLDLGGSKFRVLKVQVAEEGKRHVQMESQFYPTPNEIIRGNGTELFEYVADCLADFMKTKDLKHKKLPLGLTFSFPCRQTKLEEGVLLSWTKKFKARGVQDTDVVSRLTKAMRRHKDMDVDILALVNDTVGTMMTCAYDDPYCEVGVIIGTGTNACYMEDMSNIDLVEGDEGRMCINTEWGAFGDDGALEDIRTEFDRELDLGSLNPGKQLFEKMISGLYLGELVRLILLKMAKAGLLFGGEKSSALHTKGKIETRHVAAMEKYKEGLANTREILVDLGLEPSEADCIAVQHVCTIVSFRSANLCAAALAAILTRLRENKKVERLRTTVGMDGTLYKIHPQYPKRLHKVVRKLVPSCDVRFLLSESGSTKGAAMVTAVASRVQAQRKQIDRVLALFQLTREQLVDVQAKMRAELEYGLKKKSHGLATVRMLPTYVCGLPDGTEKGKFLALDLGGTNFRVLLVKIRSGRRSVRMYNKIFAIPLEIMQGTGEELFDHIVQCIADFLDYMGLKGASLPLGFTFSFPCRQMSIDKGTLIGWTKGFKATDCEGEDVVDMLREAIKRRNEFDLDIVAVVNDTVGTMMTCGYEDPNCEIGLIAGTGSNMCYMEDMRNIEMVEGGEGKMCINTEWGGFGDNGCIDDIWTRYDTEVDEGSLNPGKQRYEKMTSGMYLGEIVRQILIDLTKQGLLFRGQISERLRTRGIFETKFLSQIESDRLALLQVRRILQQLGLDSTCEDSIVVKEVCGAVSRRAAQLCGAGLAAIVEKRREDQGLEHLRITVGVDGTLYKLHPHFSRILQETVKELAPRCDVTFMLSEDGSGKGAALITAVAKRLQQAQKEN

[14] = luciferase reporter signal suppression in cells – H4 neuroglioma cells, luminescence, dose response (AID 1990); type: functional, cell-based
[15] = Luminescence Cell-Based Dose Response HTS to Identify Inhibitors of 5'UTR Stem-Loop Driven Prion Protein mRNA Translation in H4 Neuroglioblastoma Cells. [Related pubchem assays: 1827 (Project Summary), 1813 (Primary HTS)]; type: functional
[16] = alpha-synuclein stem-loop luciferase translation blockers – H4 neuroglioma cells, luminescence, confirmation (AID 1988); type: functional, cell-based
[17] = test system: Escherichia coli; test: microbe, parasite or virus in culture
[18] = biological target: Phospholipase D1 (Homo sapiens, UniProt Q13393); test: cellular phospholipase D1 inhibition IC50 – cell-based, dose response (AID 602151); type: functional;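 also: cellular PLD1 assay in Calu-1 cells stimulated with PMA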
Phospholipase D1, sequence (Q13393 whole entry): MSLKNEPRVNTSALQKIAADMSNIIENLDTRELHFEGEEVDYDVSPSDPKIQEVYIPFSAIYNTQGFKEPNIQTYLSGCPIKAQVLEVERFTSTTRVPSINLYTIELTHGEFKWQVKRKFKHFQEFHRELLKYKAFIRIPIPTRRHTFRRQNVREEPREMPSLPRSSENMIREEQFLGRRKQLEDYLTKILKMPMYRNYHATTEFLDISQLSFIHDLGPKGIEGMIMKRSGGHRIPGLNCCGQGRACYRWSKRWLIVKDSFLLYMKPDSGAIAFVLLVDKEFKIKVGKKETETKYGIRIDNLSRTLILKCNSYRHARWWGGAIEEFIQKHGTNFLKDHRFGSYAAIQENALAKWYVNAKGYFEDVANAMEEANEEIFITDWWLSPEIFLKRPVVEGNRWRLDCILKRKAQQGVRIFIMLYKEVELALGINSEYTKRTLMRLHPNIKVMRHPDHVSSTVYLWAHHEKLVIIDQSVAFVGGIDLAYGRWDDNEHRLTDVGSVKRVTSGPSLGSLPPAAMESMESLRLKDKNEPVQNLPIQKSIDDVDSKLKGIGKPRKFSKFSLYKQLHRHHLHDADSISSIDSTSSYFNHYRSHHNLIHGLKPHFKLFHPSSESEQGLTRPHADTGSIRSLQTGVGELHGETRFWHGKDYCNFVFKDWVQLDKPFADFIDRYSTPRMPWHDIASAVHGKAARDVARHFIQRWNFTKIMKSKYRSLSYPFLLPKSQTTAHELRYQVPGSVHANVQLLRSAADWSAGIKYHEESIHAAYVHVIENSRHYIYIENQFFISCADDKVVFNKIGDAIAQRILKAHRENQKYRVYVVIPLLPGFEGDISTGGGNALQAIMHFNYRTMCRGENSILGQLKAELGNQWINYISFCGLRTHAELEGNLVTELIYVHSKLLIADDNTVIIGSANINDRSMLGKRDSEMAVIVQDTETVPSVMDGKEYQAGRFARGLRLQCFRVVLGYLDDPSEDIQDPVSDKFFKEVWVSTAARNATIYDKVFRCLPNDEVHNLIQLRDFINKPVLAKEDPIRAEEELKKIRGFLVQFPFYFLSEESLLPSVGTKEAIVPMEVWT

[19] = biological target: Phospholipase D2 (Homo sapiens, UniProt O14939); test: cellular phospholipase D2 inhibition IC50 – cell-based, dose response (AID 602147); type: functional;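 also: cellular assay in HEK293 cells overexpressing GFP-tagged PLD2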
Phospholipase D2, sequence (O14939 whole entry): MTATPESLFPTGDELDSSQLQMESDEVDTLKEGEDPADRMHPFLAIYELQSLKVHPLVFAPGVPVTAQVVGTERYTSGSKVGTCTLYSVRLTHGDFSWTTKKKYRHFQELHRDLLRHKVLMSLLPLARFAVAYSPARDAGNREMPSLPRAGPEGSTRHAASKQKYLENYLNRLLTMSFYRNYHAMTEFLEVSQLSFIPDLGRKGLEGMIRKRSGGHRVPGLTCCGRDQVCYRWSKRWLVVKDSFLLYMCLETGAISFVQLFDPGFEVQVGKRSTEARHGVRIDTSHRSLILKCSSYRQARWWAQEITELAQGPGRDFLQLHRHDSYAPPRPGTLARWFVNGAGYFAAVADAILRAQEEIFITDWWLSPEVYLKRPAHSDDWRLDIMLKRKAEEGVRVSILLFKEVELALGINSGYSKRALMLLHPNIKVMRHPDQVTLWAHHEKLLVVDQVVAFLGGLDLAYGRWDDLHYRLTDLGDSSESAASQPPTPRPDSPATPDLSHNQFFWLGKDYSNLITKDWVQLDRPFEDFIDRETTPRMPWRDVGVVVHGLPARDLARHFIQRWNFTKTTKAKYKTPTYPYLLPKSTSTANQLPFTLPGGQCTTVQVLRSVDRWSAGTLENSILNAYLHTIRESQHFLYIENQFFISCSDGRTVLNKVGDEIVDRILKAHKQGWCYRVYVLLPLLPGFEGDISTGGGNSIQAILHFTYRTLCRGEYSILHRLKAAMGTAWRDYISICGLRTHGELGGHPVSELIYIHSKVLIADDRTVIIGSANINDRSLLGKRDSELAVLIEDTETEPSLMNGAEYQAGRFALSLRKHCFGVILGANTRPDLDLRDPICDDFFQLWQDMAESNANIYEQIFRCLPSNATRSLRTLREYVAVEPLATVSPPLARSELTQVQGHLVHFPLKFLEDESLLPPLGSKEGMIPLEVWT

[20] = test system: Escherichia coli; test: microbe, parasite or virus in culture; remark: listed apart in the source
[21] = test system: Candida albicans; test: fluconazole-resistant Candida strain growth inhibitors – CaCi-8 strain, dry powder, set 4, dose response (AID 488950); type: functional, organism-based
[22] = test system: Candida albicans; test: C. albicans growth inhibition with fluconazole – CaCi-2 strain, Alamar Blue, dry powder, set 4, dose response (AID 488943); type: functional, organism-based
[23] = test system: Candida albicans; test: resistant Candida growth with fluconazole co-treatment – CaCi-8 strain, Alamar Blue, dry powder, set 3, dose response (AID 488905); type: functional, organism-based
[24] = test system: Candida albicans; test: Candida growth inhibition combined with fluconazole – CaCi-2 strain, Alamar Blue, dry powder, set 3, dose response (AID 488907); type: functional, organism-based

Beta-galactosidase, sequence (Q8VNN2 whole entry): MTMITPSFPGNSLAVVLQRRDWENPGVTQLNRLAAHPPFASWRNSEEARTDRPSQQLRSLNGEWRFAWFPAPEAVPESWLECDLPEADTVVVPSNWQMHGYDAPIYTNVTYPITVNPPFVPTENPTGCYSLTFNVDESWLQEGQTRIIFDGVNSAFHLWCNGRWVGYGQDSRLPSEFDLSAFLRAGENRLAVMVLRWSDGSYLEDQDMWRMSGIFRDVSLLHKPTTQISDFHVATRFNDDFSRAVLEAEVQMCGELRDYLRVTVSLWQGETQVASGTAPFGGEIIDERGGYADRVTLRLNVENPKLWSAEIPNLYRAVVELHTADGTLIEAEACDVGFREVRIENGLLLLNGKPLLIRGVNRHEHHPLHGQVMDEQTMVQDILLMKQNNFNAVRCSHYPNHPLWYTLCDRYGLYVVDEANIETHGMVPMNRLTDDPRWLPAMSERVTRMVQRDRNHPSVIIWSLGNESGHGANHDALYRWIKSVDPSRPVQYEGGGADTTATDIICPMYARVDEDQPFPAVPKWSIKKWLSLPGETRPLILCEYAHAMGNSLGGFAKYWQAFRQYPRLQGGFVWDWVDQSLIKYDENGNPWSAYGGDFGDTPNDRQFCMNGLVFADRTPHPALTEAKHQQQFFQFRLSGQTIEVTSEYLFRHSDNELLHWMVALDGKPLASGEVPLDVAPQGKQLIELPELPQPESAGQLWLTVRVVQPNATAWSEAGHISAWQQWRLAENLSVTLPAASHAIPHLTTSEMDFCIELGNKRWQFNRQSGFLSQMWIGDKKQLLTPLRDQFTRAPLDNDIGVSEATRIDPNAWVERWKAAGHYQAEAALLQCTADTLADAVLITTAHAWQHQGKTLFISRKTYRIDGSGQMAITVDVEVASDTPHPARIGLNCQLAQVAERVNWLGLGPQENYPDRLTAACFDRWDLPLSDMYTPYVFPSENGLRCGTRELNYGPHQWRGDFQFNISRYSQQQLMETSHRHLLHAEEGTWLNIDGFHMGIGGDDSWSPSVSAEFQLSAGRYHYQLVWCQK

In the case of `O=C1c2ccccc2-c2nnc(-c3ccccc3)cc21`, the EC50 [1] is reported as > 40 µM (inactive), the IC50 [2] is reported as 7.43 µM (active) and the EC50 [3] is reported as > 104 µM (inactive).

In the case of `CCCc1sc(N/N=C/c2ccccn2)nc1-c1ccc(Br)cc1`, the EC50 [4] is reported as 0.442 µM (active), the EC50 [5] is reported as > 150 µM (not active) and the EC50 [6] is reported as 0.202 µM (active). The EC50 [7] was 2.38 µM (active), the EC50 [8] was 8.45 µM (active) and the AC50 [9] was 22.3 µM (active). For the same compound, the AC50 [10] was 32.3 µM (active) and the AC50 [11] was 8.41 µM (active).

In the case of `COc1ccc2c(c1)C(NC(C)=O)C(=O)N2Cc1ccccc1` (centres undefined), the IC50 [12] is reported as > 80 µM (inactive) and the IC50 [13] is reported as > 80 µM (inactive).

In the case of `O=C(O)CCCc1nc(-c2ccc(Cl)cc2)no1`, the EC50 [14] is reported as 27.1 µM (active), the EC50 [15] is reported as 23.1 µM (active) and the EC50 [16] is reported as 16.2 µM (active). For the same compound, the AC50 [17] was 39 µM (active).

In the case of `C[C@@H](CN1CCC2(CC1)C(=O)NCN2c1ccc(F)c(F)c1)NC(=O)c1ccc(F)cc1`, the IC50 [18] is reported as 0.104 µM (active) and the IC50 [19] is reported as 0.26 µM (active).

For `Cc1nnc(SCc2ccccc2CSc2nnc(C)s2)s1`, the AC50 [20] was 111 µM (active).

For `Cc1ccc(N2CCN(C(=O)c3ccc(Cl)cc3)CC2)nn1`, the AC50 [21] was 4.41 µM (active), the AC50 [22] was 1.64 µM (active) and the AC50 [23] was 103 µM (active). The AC50 [24] was 8.19 µM (active).
